Assay results as given in patent US20260250290A1 (BRISTOL-MYERS SQUIBB COMPANY, priority 2023, published 2026).
Counter-ions that a name gives are not always drawn.

molecular target: T1, full length SGK1 (Homo sapiens, UniProt O00141); assay: SGK1 inhibition Assay A (Caliper LabChip electrophoretic separation of fluorescent peptide substrate and phosphorylated product); assay type: biochemical; conditions: Assay A; 20 μM ATP, 40 min incubation; read-out: SGK1 IC50
T1 construct: 125 μM full length SGK1 (Life Technologies Part #PR7358A); purchased Life Technologies PR7358A
T1 sequence (O00141 1-431): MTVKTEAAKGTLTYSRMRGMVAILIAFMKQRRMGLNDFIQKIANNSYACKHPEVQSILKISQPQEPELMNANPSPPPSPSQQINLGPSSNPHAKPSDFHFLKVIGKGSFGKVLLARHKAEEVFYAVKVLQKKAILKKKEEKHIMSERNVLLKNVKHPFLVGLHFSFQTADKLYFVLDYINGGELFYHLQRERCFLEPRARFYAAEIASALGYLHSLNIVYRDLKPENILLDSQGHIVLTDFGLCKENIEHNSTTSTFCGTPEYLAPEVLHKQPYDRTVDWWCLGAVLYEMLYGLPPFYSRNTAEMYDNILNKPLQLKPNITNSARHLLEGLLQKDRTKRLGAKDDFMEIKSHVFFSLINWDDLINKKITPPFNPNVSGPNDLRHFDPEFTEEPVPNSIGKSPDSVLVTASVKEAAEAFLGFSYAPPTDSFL

Row | IC50 | SMILES
1 | 1 nM | CC(=O)N1CC=C(c2cc(N3CCC[C@@H](NC(=O)c4cccc(N5C[C@@H](C)N[C@@H](C)C5)n4)C3)c3c(N)ncnn23)C1 [Example 774, N-((R)-1-(7-(1-acetyl-2,5-dihydro-1H-pyrrol-3-yl)-4-aminopyrrolo[2,1-f][1,2,4]triazin-5-yl)piperidin-3-yl)-6-((3S,5R)-3,5-dimethylpiperazin-1-yl)picolinamide]
2 | 36 nM | CN(C)CCOc1c(C(=O)N[C@@H]2CCCN(c3cc(-c4ccc(C#N)c(F)c4)n4ncnc(N)c34)C2)[nH]c2ccccc12 [Example 368, (R)-N-(1-(4-amino-7-(4-cyano-3-fluorophenyl)pyrrolo[2,1-f][1,2,4]triazin-5-yl)piperidin-3-yl)-3-(2-(dimethylamino)ethoxy)-1H-indole-2-carboxamide]
3 | 4 nM | CC(=O)N1CC=C(c2cc(N3CCCC(NC(=O)c4sc(Cl)cc4OC4CCNC(C)C4)C3)c3c(N)ncnn23)C1 (single isomer, unassigned) [Example 623]
4 | 30 nM | Cc1ccc(C(=O)N[C@@H]2CCCN(c3c(C#N)c(-c4ccc(S(C)(=O)=O)cc4)n4ncnc(N)c34)C2)s1 [Example 197, N-[(3R)-1-[4-amino-6-cyano-7-(4-methanesulfonylphenyl)pyrrolo[2,1-f][1,2,4]triazin-5-yl]piperidin-3-yl]-5-methylthiophene-2-carboxamide]
5 | 12 nM | CC(=O)N1CC=C(c2cc(N3CCC[C@@H](NC(=O)c4[nH]c5ccccc5c4OCCN(C)C)C3)c3c(N)ncnn23)C1 [Example 364, (R)—N-(1-(7-(1-acetyl-2,5-dihydro-1H-pyrrol-3-yl)-4-aminopyrrolo[2,1-f][1,2,4]triazin-5-yl)piperidin-3-yl)-3-(2-(dimethylamino)ethoxy)-1H-indole-2-carboxamide]
6 | 188 nM | Cc1ccc(C(=O)N[C@@H]2CCCN(c3c(Br)c(-c4ccc(S(C)(=O)=O)cc4)n4ncnc(N)c34)C2)s1 [Example 194, N-[(3R)-1-[4-amino-6-bromo-7-(4-methanesulfonylphenyl)pyrrolo[2,1-f][1,2,4]triazin-5-yl]piperidin-3-yl]-5-methylthiophene-2-carboxamide]
7 | 1 nM | Nc1ncnn2c(C3=CCN(C(=O)c4ccon4)C3)cc(N3CCC[C@@H](NC(=O)c4ccc(Cl)s4)C3)c12 [Example 882, (R)-N-(1-(4-amino-7-(1-(isoxazole-3-carbonyl)-2,5-dihydro-1H-pyrrol-3-yl)pyrrolo[2,1-f][1,2,4]triazin-5-y1)piperidin-3-y1)-5-chlorothiophene-2-carboxamide]
8 | 4 nM | CC(=O)N1CC=C(c2cc(N3CCCC(NC(=O)c4sc(Cl)cc4OCC4CCNC4)C3)c3c(N)ncnn23)C1 (single isomer, unassigned) [Example 639]
9 | 6 nM | Cc1cc(Br)c(C(=O)N[C@@H]2CCCN(c3cc(-c4ccnc(F)c4)n4ncnc(N)c34)C2)s1 [Example 170, (R)—N-(1-(4-amino-7-(2-fluoropyridin-4-yl)pyrrolo[2,1-f][1,2,4]triazin-5-yl)piperidin-3-yl)-3-bromo-5-methylthiophene-2-carboxamide]
10 | 51 nM | Nc1ncnn2c(-c3cncnc3)cc(N3CCC[C@@H](NC(=O)c4sc5ccccc5c4OC4CCNCC4)C3)c12 [Example 657, (R)—N-(1-(4-amino-7-(pyrimidin-5-yl)pyrrolo[2,1-f][1,2,4]triazin-5-yl)piperidin-3-yl)-3-(piperidin-4-yloxy)benzo[b]thiophene-2-carboxamide]
11 | 5 nM | CC(=O)N1CC=C(c2cc(N3CCC[C@@H](NC(=O)c4cccc(N5CCNC(C(F)(F)F)C5)n4)C3)c3c(N)ncnn23)C1 (stereo partly drawn) [Example 776, N-((R)-1-(7-(1-acetyl-2,5-dihydro-1H-pyrrol-3-yl)-4-aminopyrrolo[2,1-f][1,2,4]triazin-5-yl)piperidin-3-yl)-6-(3-(trifluoromethyl)piperazin-1-yl)picolinamide]
12 | 4 nM | COC(=O)N1CC=C(c2cc(N3CCC[C@@H](NC(=O)c4sc(Cl)cc4OCCN(C)C)C3)c3c(N)ncnn23)C1 [Example 173, methyl (R)-3-(4-amino-5-(3-(5-chloro-3-(2-(dimethylamino)ethoxy)thiophene-2-carboxamido)piperidin-1-yl)pyrrolo[2,1-f][1,2,4]triazin-7-yl)-2,5-dihydro-1H-pyrrole-1-carboxylate, 2 TFA]
13 | 1 nM | NC(=O)c1ccc(-c2cc(N3CCC[C@@H](NC(=O)c4ccc(C(F)F)s4)C3)c3c(N)ncnn23)cc1F [Example 497, (R)-N-(1-(4-amino-7-(4-carbamoyl-3-fluorophenyl)pyrrolo[2,1-f][1,2,4]triazin-5-yl)piperidin-3-yl)-5-(difluoromethyl)thiophene-2-carboxamide]
14 | 37 nM | CC(=O)N1CC=C(c2cc(N3CCC[C@@H](NC(=O)c4cccc(OC5CCN(C(C)C)CC5)n4)C3)c3c(N)ncnn23)C1 [Example 751, (R)-N-(1-(7-(1-acetyl-2,5-dihydro-1H-pyrrol-3-yl)-4-aminopyrrolo[2,1-f][1,2,4]triazin-5-yl)piperidin-3-yl)-6-((1-isopropylpiperidin-4-yl)oxy)picolinamide]
15 | 30 nM | COC(=O)N1CC=C(c2cc(N3CCC[C@@H](NC(=O)c4sc(C(F)F)cc4OCCNC(C)=O)C3)c3c(N)ncnn23)C1 [Example 423, Methyl (R)-3-(5-(3-(3-(2-acetamidoethoxy)-5-(difluoromethyl)thiophene-2-carboxamido)piperidin-1-yl)-4-aminopyrrolo[2,1-f][1,2,4]triazin-7-yl)-2,5-dihydro-1H-pyrrole-1-carboxylate]
16 | 115 nM | Cc1cc(C(=O)N[C@@H]2CCCN(c3cc(-c4ccc(S(C)(=O)=O)cc4)n4ncnc(N)c34)C2)cc(=O)[nH]1 [Example 40, (R)-N-(1-(4-amino-7-(4-(methylsulfonyl)phenyl)pyrrolo[2,1-f][1,2,4]triazin-5-yl)piperidin-3-yl)-6-methyl-2-oxo-1,2-d1Hydropyridine-4-carboxamide, TFA]
17 | 115 nM | Cc1cc(-c2cc(N3CCC[C@@H](NC(=O)c4sc(Cl)cc4OCCN(C)C)C3)c3c(N)ncnn23)cn(C)c1=O [Example 691, (R)—N-(1-(4-amino-7-(1,5-dimethyl-6-oxo-1,6-dihydropyridin-3-yl)pyrrolo[2,1-f][1,2,4]triazin-5-yl)piperidin-3-yl)-5-chloro-3-(2-(dimethylamino)ethoxy)thiophene-2-carboxamide]
18 | 67 nM | CS(=O)(=O)c1ccc(-c2cc(N3CCC[C@@H](NC(=O)c4cnn(C5CCOCC5)c4)C3)c3c(N)ncnn23)cc1 [Example 78, (R)-N-(1-(4-amino-7-(4-(methylsulfonyl)phenyl)pyrrolo[2,1-f][1,2,4]triazin-5-yl)piperidin-3-yl)-1-(tetrahydro-2H-pyran-4-yl)-1H-pyrazole-4-carboxamide]
19 | 37 nM | CS(=O)(=O)c1ccc(-c2cc(N3CCC[C@@H](NC(=O)c4ccnc(N5CCOCC5)c4)C3)c3c(N)ncnn23)cc1 [Example 69, (R)-N-(1-(4-amino-7-(4-(methylsulfonyl)phenyl)pyrrolo[2,1-f][1,2,4]triazin-5-yl)piperidin-3-yl)-2-morpholinoisonicotinamide]
20 | 111 nM | CS(=O)(=O)c1ccc(-c2cc(N3CCC[C@@H](NC(=O)c4ccsn4)C3)c3c(N)ncnn23)cc1 [Example 62, (R)-N-(1-(4-amino-7-(4-(methylsulfonyl)phenyl)pyrrolo[2,1-f][1,2,4]triazin-5-yl)piperidin-3-yl)isothiazole-3-carboxamide]
